From US6528491B2, “Pyranoside derivatives” (Boehringer Ingelheim Pharma KG, priority 2000, dated 2003)
pKi: −log10 of the molar value.

Target: LTB4 receptor (Homo sapiens, UniProt Q15722)
Assay: receptor binding test
Text: The activity can be investigated pharmacologically and biochemically using tests as disclosed for example in WO 93/16036, pp. 15 to 17; reference is hereby made to the contents of this publication.

LTB4 receptor, sequence (Q15722 whole entry): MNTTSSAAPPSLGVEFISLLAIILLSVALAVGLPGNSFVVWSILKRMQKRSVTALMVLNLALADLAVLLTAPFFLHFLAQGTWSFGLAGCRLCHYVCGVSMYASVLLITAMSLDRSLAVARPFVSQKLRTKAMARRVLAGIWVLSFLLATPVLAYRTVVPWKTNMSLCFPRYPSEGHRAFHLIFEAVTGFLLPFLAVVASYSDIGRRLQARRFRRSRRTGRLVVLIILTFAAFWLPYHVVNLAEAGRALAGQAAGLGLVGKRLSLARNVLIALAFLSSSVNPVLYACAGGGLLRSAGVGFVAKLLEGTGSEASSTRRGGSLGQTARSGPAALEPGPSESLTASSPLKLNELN

Compound: CCCc1cc(-c2ccc(C(=N)N)cc2)ccc1OCCOc1cccc(O[C@@H]2O[C@H](C(=O)O)[C@@H](O)[C@H](O)[C@H]2O)c1 [Example 1, 3′-n-propyl-4′-[2-(3-hydroxyphenoxy)-ethoxy]-1,1′-biphenyl-4-carboximidamide-O-β-D-glucuronide]
- pKi: 8.44
